Tests used:
Conditions in all cases: Compound concentration 1000.0 nM
[1] = molecular target: Calcium-dependent protein kinase 1 (Plasmodium falciparum) (UniProt P62344)
[2] = molecular target: Myosin light chain kinase 2, skeletal/cardiac muscle (Homo sapiens) (UniProt Q9H1R3)
[3] = molecular target: Serine/threonine-protein kinase VRK2 (Homo sapiens) (UniProt Q86Y07)
[4] = molecular target: Serine/threonine-protein kinase ULK1 (Homo sapiens) (UniProt O75385)
[5] = molecular target: Uncharacterized serine/threonine-protein kinase SBK3 (Homo sapiens) (UniProt P0C264)
[6] = molecular target: Tyrosine-protein kinase Lyn (Homo sapiens) (UniProt P07948)
[7] = test system: Tyrosine-protein kinase ABL1 (Homo sapiens), P00519 [H396P]
[8] = molecular target: Fibroblast growth factor receptor 3 (Homo sapiens) (UniProt P22607)
[9] = molecular target: Ephrin type-B receptor 1 (Homo sapiens) (UniProt P54762)
[10] = molecular target: Proto-oncogene tyrosine-protein kinase ROS (Homo sapiens) (UniProt P08922)
[11] = molecular target: Ribosomal protein S6 kinase alpha-1 (Homo sapiens) (UniProt Q15418)
[12] = molecular target: Ephrin type-A receptor 6 (Homo sapiens) (UniProt Q9UF33)
[13] = molecular target: Tyrosine-protein kinase JAK1 (Homo sapiens) (UniProt P23458)
[14] = molecular target: Aurora kinase B (Homo sapiens) (UniProt Q96GD4)
[15] = molecular target: Serine/threonine-protein kinase Sgk1 (Homo sapiens) (UniProt O00141)
[16] = molecular target: Cyclin-dependent kinase 7 (Homo sapiens) (UniProt P50613)
[17] = molecular target: Serine/threonine-protein kinase Nek1 (Homo sapiens) (UniProt Q96PY6)
[18] = molecular target: Activin receptor type-1B (Homo sapiens) (UniProt P36896)
[19] = molecular target: Calcium/calmodulin-dependent protein kinase kinase 1 (Homo sapiens) (UniProt Q8N5S9)
[20] = molecular target: Serine/threonine-protein kinase TAO3 (Homo sapiens) (UniProt Q9H2K8)
[21] = molecular target: Vascular endothelial growth factor receptor 3 (Homo sapiens) (UniProt P35916)
[22] = molecular target: Ribosomal protein S6 kinase alpha-2 (Homo sapiens) (UniProt Q15349)
[23] = molecular target: Mitogen-activated protein kinase 10 (Homo sapiens) (UniProt P53779)
[24] = molecular target: Mitotic checkpoint serine/threonine-protein kinase BUB1 (Homo sapiens) (UniProt O43683)
[25] = molecular target: Mitogen-activated protein kinase kinase kinase 14 (Homo sapiens) (UniProt Q99558)
[26] = test system: Phosphatidylinositol 4,5-bisphosphate 3-kinase catalytic subunit alpha isoform (Homo sapiens), P42336 [E545A]
[27] = molecular target: Dual specificity tyrosine-phosphorylation-regulated kinase 1A (Homo sapiens) (UniProt Q13627)
[28] = molecular target: Serine/threonine-protein kinase MARK2 (Homo sapiens) (UniProt Q7KZI7)
[29] = molecular target: Non-receptor tyrosine-protein kinase TYK2 (Homo sapiens) (UniProt P29597)
[30] = molecular target: Insulin receptor (Homo sapiens) (UniProt P06213)
[31] = molecular target: Bone morphogenetic protein receptor type-1A (Homo sapiens) (UniProt P36894)
[32] = molecular target: Dual specificity mitogen-activated protein kinase kinase 5 (Homo sapiens) (UniProt Q13163)
[33] = molecular target: Serine/threonine-protein kinase PRP4 homolog (Homo sapiens) (UniProt Q13523)
[34] = molecular target: Fibroblast growth factor receptor 4 (Homo sapiens) (UniProt P22455)
[35] = molecular target: Casein kinase I isoform gamma-1 (Homo sapiens) (UniProt Q9HCP0)
[36] = test system: Receptor-type tyrosine-protein kinase FLT3 (Homo sapiens), P36888 [D835Y]
[37] = molecular target: Dual specificity protein kinase CLK4 (Homo sapiens) (UniProt Q9HAZ1)
[38] = molecular target: Cyclin-dependent kinase-like 1 (Homo sapiens) (UniProt Q00532)
[39] = molecular target: Cyclin-G-associated kinase (Homo sapiens) (UniProt O14976)
[40] = molecular target: Serine/threonine-protein kinase 26 (Homo sapiens) (UniProt Q9P289)
[41] = molecular target: Calcium/calmodulin-dependent protein kinase type 1 (Homo sapiens) (UniProt Q14012)
[42] = test system: Tyrosine-protein kinase ABL1 (Homo sapiens), P00519 [E255K]
[43] = molecular target: Megakaryocyte-associated tyrosine-protein kinase (Homo sapiens) (UniProt P42679)
[44] = molecular target: Death-associated protein kinase 2 (Homo sapiens) (UniProt Q9UIK4)
[45] = molecular target: Mitogen-activated protein kinase kinase kinase kinase 2 (Homo sapiens) (UniProt Q12851)

Measured: residual activity

Chain of Ribosomal protein S6 kinase alpha-1 (Homo sapiens) (Q15418 whole entry): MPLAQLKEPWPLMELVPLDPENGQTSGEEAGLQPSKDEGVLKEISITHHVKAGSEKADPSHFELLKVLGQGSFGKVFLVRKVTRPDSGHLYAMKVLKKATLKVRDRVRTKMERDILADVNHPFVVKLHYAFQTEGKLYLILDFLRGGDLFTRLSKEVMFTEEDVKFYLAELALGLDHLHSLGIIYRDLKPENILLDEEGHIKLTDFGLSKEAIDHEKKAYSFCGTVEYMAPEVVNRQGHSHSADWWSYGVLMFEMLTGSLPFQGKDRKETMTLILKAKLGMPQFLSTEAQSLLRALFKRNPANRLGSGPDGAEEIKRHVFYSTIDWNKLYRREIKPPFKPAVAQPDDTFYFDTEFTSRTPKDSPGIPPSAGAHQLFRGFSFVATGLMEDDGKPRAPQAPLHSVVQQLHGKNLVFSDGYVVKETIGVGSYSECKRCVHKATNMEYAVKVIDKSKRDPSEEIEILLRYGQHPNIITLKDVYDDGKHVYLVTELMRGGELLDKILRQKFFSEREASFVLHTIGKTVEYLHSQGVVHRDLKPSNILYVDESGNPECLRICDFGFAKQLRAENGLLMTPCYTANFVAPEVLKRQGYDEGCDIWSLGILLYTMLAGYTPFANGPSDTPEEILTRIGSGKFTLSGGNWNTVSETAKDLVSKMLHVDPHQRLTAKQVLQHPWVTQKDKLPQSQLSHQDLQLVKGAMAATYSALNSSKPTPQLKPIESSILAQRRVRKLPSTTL
Chain of Serine/threonine-protein kinase VRK2 (Homo sapiens) (Q86Y07 whole entry): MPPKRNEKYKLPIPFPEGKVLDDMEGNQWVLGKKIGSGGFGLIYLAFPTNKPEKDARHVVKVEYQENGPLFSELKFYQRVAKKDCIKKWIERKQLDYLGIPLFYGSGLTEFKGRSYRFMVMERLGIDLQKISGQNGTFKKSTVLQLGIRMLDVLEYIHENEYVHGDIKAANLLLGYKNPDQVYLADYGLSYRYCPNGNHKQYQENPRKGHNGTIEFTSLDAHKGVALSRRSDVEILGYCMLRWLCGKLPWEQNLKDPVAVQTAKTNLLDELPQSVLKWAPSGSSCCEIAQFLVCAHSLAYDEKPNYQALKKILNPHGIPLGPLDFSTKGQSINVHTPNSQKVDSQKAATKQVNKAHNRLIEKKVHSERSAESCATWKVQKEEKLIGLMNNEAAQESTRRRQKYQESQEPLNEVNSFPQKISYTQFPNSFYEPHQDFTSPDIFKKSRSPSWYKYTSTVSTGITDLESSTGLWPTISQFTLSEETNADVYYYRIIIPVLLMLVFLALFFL
Chain of Fibroblast growth factor receptor 3 (Homo sapiens) (P22607 23-806 limits assumed): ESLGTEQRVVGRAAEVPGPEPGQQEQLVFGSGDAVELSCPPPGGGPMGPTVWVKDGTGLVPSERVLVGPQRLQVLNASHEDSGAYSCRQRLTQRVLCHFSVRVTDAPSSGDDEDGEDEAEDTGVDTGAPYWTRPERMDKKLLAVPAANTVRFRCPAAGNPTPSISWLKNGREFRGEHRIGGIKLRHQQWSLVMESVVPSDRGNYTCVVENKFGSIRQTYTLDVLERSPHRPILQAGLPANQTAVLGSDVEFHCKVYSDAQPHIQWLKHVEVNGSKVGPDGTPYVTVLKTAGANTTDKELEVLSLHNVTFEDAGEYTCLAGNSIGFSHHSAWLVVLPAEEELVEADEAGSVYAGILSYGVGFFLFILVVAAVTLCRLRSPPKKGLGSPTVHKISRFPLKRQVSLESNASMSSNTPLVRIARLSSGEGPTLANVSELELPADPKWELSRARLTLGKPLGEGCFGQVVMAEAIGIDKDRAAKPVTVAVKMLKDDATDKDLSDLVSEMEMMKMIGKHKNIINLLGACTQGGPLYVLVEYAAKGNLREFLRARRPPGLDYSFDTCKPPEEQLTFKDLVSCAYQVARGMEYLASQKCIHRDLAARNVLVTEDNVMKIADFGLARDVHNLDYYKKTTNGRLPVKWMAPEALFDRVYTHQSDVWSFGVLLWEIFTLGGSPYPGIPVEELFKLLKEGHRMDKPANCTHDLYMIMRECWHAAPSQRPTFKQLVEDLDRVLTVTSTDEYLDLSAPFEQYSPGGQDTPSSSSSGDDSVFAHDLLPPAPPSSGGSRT
Chain of Aurora kinase B (Homo sapiens) (Q96GD4 whole entry): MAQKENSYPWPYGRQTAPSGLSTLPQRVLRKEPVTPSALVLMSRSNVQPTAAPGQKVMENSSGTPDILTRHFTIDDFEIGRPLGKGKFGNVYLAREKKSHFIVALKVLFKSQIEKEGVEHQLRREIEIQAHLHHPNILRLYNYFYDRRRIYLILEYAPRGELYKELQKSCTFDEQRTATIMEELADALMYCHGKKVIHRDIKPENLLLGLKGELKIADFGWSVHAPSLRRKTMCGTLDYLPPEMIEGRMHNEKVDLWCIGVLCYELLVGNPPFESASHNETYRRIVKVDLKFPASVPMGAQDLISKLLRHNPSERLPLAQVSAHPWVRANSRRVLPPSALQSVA
Chain of Ephrin type-A receptor 6 (Homo sapiens) (Q9UF33 whole entry): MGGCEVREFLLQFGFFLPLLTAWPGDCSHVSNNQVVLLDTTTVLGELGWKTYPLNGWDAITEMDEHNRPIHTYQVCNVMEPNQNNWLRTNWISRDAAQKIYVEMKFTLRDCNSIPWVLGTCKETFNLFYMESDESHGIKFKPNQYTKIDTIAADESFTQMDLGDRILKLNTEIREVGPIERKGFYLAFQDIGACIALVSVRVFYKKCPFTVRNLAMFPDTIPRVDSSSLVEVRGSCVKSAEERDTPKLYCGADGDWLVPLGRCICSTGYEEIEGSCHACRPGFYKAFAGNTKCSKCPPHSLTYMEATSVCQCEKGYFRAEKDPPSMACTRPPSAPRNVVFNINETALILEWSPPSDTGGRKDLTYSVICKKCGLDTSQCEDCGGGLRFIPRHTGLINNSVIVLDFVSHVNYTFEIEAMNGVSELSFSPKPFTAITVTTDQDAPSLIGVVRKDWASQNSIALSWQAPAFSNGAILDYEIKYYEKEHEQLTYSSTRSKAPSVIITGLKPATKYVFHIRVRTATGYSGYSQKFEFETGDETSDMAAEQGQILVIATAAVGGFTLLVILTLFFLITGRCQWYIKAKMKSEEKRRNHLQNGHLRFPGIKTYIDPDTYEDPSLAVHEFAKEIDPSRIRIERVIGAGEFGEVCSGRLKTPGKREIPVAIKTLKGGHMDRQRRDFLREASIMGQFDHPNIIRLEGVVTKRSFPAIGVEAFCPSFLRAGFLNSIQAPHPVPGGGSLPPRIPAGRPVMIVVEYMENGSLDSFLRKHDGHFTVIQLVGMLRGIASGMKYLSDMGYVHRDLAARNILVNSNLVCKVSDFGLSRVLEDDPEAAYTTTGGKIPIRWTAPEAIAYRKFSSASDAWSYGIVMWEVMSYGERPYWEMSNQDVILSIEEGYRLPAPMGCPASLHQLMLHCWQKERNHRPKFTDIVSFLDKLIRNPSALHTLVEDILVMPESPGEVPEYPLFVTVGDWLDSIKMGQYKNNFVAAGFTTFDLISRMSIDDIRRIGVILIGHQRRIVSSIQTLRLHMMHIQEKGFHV
Chain of Cyclin-dependent kinase 7 (Homo sapiens) (P50613 whole entry): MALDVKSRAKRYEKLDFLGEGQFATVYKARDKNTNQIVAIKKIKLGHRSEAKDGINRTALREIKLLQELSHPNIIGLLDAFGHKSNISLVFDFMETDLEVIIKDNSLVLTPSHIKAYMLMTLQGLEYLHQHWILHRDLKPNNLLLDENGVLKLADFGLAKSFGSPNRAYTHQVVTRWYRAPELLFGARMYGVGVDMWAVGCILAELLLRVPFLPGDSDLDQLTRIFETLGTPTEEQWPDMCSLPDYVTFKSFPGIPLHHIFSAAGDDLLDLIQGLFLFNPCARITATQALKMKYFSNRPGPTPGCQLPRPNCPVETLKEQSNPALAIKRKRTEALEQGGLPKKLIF
Chain of Dual specificity protein kinase CLK4 (Homo sapiens) (Q9HAZ1 whole entry, looked up): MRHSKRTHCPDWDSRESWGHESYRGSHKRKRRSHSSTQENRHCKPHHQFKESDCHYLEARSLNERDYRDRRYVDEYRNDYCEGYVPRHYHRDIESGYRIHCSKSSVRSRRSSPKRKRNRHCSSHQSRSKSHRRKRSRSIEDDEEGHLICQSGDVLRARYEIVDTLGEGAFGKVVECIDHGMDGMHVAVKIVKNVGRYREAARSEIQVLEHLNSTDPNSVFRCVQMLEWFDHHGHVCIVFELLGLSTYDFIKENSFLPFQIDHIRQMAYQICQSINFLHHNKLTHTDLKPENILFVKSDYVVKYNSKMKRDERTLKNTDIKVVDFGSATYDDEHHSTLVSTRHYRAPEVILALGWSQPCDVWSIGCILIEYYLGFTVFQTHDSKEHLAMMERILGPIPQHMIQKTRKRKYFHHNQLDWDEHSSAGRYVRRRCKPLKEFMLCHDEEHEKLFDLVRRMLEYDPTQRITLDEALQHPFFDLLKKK
Chain of Dual specificity mitogen-activated protein kinase kinase 5 (Homo sapiens) (Q13163 whole entry): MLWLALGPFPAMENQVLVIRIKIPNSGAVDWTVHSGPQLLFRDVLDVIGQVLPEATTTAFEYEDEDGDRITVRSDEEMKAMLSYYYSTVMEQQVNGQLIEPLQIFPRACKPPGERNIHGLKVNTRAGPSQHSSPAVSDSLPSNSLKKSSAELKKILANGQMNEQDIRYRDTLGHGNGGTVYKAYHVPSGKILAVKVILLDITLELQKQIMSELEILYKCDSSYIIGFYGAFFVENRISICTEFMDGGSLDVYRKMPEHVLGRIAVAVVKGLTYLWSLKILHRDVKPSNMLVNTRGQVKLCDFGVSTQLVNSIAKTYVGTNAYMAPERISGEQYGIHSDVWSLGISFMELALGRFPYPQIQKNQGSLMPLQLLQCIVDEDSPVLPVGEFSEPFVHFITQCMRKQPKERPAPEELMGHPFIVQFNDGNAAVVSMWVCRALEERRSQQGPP

N#CC1(c2ccccn2)CCN(Cc2cc(C(=O)O)c(=O)n3ccccc23)CC1 [MSD-M1PAM]
inactive: [1] 88% | [2] 94% | [3] 100% | [4] 76% | [5] 72% | [6] 100% | [7] 91% | [8] 100% | [9] 100% | [10] 90% | [11] 100% | [12] 86% | [13] 84% | [14] 76% | [15] 87% | [16] 58% | [17] 100% | [18] 94% | [19] 100% | [20] 78% | [21] 100% | [22] 100% | [23] 82% | [24] 100% | [25] 73% | [26] 100% | [27] 97% | [28] 100% | [29] 93% | [30] 74% | [31] 97% | [32] 62% | [33] 100% | [34] 100% | [35] 100% | [36] 95% | [37] 100% | [38] 100% | [39] 100% | [40] 100% | [41] 76% | [42] 100% | [43] 84% | [44] 99% | [45] 81%

N#CC1(c2ccccn2)CCN(Cc2cc(C(=O)N3CCCC3)c(=O)n3ccccc23)CC1
inactive: [1] 84% | [2] 87% | [3] 100% | [4] 91% | [5] 100% | [6] 99% | [7] 100% | [8] 88% | [9] 91% | [10] 97% | [11] 79% | [12] 100% | [13] 100% | [14] 92% | [15] 100% | [16] 82% | [17] 91% | [18] 69% | [19] 100% | [20] 100% | [21] 86% | [22] 88% | [23] 96% | [24] 100% | [25] 100% | [26] 78% | [27] 94% | [28] 100% | [29] 100% | [30] 88% | [31] 74% | [32] 100% | [33] 78% | [34] 90% | [35] 79% | [36] 71% | [37] 97% | [38] 78% | [39] 100% | [40] 100% | [41] 100% | [42] 87% | [43] 76% | [44] 94% | [45] 96%

Source: ChEMBL document CHEMBL4507295 (2021)
